The assay deals with T1, human GlyT1c transporter (Homo sapiens, UniProt P48067).
T1 construct: expressed in transfected cells; host or cells: CHO cells (recombinant; line hGlyT1c_5_CHO is named for the uptake assay)
T1 sequence (P48067 1-706): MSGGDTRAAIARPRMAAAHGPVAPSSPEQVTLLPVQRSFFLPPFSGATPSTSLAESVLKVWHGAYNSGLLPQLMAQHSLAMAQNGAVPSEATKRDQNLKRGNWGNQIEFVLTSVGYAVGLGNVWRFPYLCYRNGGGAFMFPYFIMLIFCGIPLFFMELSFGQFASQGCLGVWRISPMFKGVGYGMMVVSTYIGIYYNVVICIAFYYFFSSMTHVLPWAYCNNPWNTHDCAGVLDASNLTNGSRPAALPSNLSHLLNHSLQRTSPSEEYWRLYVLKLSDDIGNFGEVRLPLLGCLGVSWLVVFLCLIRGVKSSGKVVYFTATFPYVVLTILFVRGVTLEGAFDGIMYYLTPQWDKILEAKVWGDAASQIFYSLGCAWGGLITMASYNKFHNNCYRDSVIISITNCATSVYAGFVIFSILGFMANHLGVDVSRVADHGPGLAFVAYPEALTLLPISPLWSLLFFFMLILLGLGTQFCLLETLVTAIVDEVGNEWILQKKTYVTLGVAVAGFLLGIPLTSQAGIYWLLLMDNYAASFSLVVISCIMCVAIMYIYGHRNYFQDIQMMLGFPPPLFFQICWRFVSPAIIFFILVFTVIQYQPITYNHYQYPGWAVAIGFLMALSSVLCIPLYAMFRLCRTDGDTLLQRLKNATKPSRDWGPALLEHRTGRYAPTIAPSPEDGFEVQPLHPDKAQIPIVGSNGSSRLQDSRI
The experiment in a line: Radioligand binding assay using recombinant CHO cell membranes expressing human GlyT1. An excerpt:
2. Radioligand binding assays using recombinant CHO cell membranes expressing human GlyT1: […]

[1] abbreviates: radioligand binding to human GlyT1c transporter-expressing membranes.
Setting [2] is: radioligand binding, recombinant CHO cell membranes expressing human GlyT1c.

The Ki is a dissociation constant, usually derived from enzyme kinetics or from competition with a known ligand.

For the compound `CCCCCCN(CCCCCC)[C@@H]1CN(S(=O)(=O)c2cn(C)cn2)C[C@H]1c1ncccc1F` (relative stereo) [Example 763, Trans-4-(3-fluoropyridin-2-yl)-N,N-dihexyl-1-[(1-methyl-1H-imidazol-4-yl)sulfonyl]pyrrolidin-3-amine], under setting [1], the Ki was ≤ 1000 nM.
The same measure, in the same setting: the same measure for `Cn1cnc(S(=O)(=O)N2C[C@@H](C(=O)NCc3cccc(Cl)c3)[C@H](c3ccc(F)cc3)C2)c1` (relative stereo) [Example 628, Trans-N-(3-chlorobenzyl)-4-(4-fluorophenyl)-1-[(1-methyl-1H-imidazol-4-yl)sulfonyl]pyrrolidine-3-carboxamide]: ≤ 10 nM; for `Cn1cnc(S(=O)(=O)N2C[C@@H](C(=O)Nc3ccc(Cl)c(OC(F)(F)F)c3)[C@H](c3ccc(F)cc3)C2)c1` (relative stereo) [Example 371, Trans-N-[4-chloro-3-(trifluoromethoxy)phenyl]-4-(4-fluorophenyl)-1-[(1-methyl-1H-imidazol-4-yl)sulfonyl]pyrrolidine-3-carboxamide]: ≤ 1000 nM.
In the case of `Cn1cnc(S(=O)(=O)N2C[C@@H](Nc3cccc(Cl)c3)[C@H](C3CCCO3)C2)c1` (relative stereo) [Example 850, Trans-N-(3-chlorophenyl)-1 - [(1-methyl-1H-imidazol-4-yl)sulfonyl] -4-(tetrahydrofuran-2-yl)pyrrolidin-3-amine], the inhibition constant (Ki) under setting [2] was ≤ 1000 nM.
For the compound `Cn1cnc(S(=O)(=O)N2C[C@@H]([C@@H]3CCCOC3)[C@H](Nc3cccc(-c4ccccc4)c3)C2)c1` (mixture of isomers) [Example 787, trans-N-(biphenyl-3-yl)-1-[(1-methyl-1H-imidazol-4-yl)sulfonyl]-4-[(3S)-tetrahydro-2H-pyran-3-yl]pyrrolidin-3-amine], under setting [1], the inhibitory constant (Ki) was ≤ 1000 nM.
Same read-out and setting: the same measure for `O=c1[nH]c(=O)c2cc(S(=O)(=O)N3CC(Nc4ccc(F)c(F)c4)C(c4ccccc4)C3)ccc2[nH]1` (centres unmarked) [Example 480, 6-({3-[(3,4-difluorophenyl)amino]-4-phenylpyrrolidin-1-yl}sulfonyl)quinazoline-2,4(1H,3H)-dione]: > 10000 nM; for `COCCCNC(=O)[C@H]1CN(S(=O)(=O)c2cn(C)cn2)C[C@@H]1c1ccc(F)cc1` [Example 583, (3R,4S)-4-(4-fluorophenyl)-N-(3-methoxypropyl)-1-[(1-methyl-1H-imidazol-4-yl)sulfonyl]pyrrolidine-3-carboxamide]: ≤ 10000 nM.
Regarding `Cn1cnc(S(=O)(=O)N2C[C@@H](Nc3cncc(C(F)(F)F)c3)[C@H](c3ccccc3)C2)c1` (relative stereo) [Example 213, N-{trans-1-[(1-methyl-1H-imidazol-4-yl)sulfonyl]-4-phenylpyrrolidin-3-yl} -5 - (trifluoromethyl)pyridin-3-amine], the Ki under setting [1] is ≤ 1000 nM.
On the same count and under the same terms, the same measure for `COCCNC[C@@H]1CN(S(=O)(=O)c2cn(C)cn2)C[C@H]1c1ccc(F)cc1` (relative stereo) [Example 593, N-({trans-4-(4-fluorophenyl)-1-[(1-methyl-1H-imidazol-4-yl)sulfonyl]pyrrolidin-3-yl}methyl)-2-methoxyethanamine]: ≤ 10000 nM; for `Cc1cc(N[C@@H]2CN(S(=O)(=O)c3cn(C)cn3)C[C@H]2[C@@H]2CCCOC2)ccc1F` (mixture of isomers) [Example 790, Trans-N-(4-fluoro-3-methylphenyl)-1-[(1-methyl-1H-imidazol-4-yl)sulfonyl]-4-[(3S)-tetrahydro-2H-pyran-3-yl]pyrrolidin-3-amine]: ≤ 1000 nM; for `Cn1cnc(S(=O)(=O)N2C[C@@H](C(=O)NCc3cccc(C(F)(F)F)c3)[C@H](c3ccc(F)cc3)C2)c1` (relative stereo) [Example 632, Trans-4-(4-fluorophenyl)-1-[(1-methyl-1H-imidazol-4-yl)sulfonyl]-N-[3-(trifluoromethyl)benzyl]pyrrolidine-3-carboxamide]: ≤ 1000 nM.
As for `Cn1cnc(S(=O)(=O)N2C[C@@H](Nc3ccc(F)c(Cl)c3)[C@H](C3CCCCO3)C2)c1` (relative stereo) [Example 815, Trans-N-(3-chloro-4-fluorophenyl)-1-[(1-methyl-1H-imidazol-4-yl)sulfonyl]-4-(tetrahydro-2H-pyran-2-yl)pyrrolidin-3-amine], the Ki under setting [2] is ≤ 100 nM.
`CCOCCCNC(=O)[C@@H]1CN(S(=O)(=O)c2cn(C)cn2)C[C@H]1c1ccc(F)cc1` [Example 578, (3S,4R)-N-(3-ethoxypropyl)-4-(4-fluorophenyl)-1-[(1-methyl-1H-imidazol-4-yl)sulfonyl]pyrrolidine-3-carboxamide]: the Ki under setting [1] is ≤ 10000 nM.
Still for that read-out and setting: the result for `Cn1cnc(S(=O)(=O)N2C[C@@H](NCc3ccc(F)cc3)[C@H](c3ccc(F)cc3)C2)c1` (relative stereo) [Example 156, trans-N-(4-fluorobenzyl)-4-(4-fluorophenyl)-1-[(1-methyl-1H-imidazol-4-yl)sulfonyl]pyrrolidin-3-amine] reads ≤ 100 nM.
The same measure, in the same setting: the result for `Cn1cnc(S(=O)(=O)N2C[C@H](Nc3ccc(F)c(OC(F)(F)F)c3)[C@@H](c3ccccc3)C2)c1` [Example 646, (3R,4S)-N-[4-fluoro-3-(trifluoromethoxy)phenyl]-1-[(1-methyl-1H-imidazol-4-yl)sulfonyl]-4-phenylpyrrolidin-3-amine] reads ≤ 10 nM; that for `Cn1cnc(S(=O)(=O)N2C[C@@H](C(=O)Nc3cccc(Cl)c3)[C@H](c3ccc(F)cc3)C2)c1` (relative stereo) [Example 304, trans-N-(3-chlorophenyl)-4-(4-fluorophenyl)-1-[(1-methyl-1H-imidazol-4-yl)sulfonyl]pyrrolidine-3-carboxamide], ≤ 1000 nM.
The same measure, in the same setting: the result for `Cn1cnc(S(=O)(=O)N2C[C@@H](Nc3cccc(C(F)(F)F)n3)[C@H](c3ccccc3F)C2)c1` (relative stereo) [Example 203, N-{trans-4-(2-fluorophenyl)-1-[(1-methyl-1H-imidazol-4-yl)sulfonyl]pyrrolidin-3-yl}-6-(trifluoromethyl)pyridin-2-amine] reads ≤ 10000 nM; that for `O=C1CCc2cc(S(=O)(=O)N3CC(Nc4ccc(F)c(F)c4)C(c4ccccc4)C3)ccc2N1` (centres unmarked) [Example 512], ≤ 10000 nM; that for `C=C(C)CO[C@@H]1CN(S(=O)(=O)c2cn(C)cn2)C[C@H]1Nc1cccc(Cl)c1` (relative stereo) [Example 403, Trans-N-(3-chlorophenyl)-1-[(1-methyl-1H-imidazol-4-yl)sulfonyl]-4-[(2-methylprop-2-en-1-yl)oxy]pyrrolidin-3-amine], ≤ 100 nM.
In the case of `CCS(=O)(=O)N1C[C@@H](NC(=O)c2cc(Cl)cc(Cl)c2)[C@H](c2ccccc2)C1` (relative stereo) [Example 123, 3,5-dichloro-N-[trans-1-(ethylsulfonyl)-4-phenylpyrrolidin-3-yl]benzamide], the Ki under setting [1] is ≤ 10000 nM.
Still for that read-out and setting: the result for `Cn1cnc(S(=O)(=O)N2C[C@@H](Nc3ccc(Cl)c(Cl)c3)[C@H](c3ccccc3)C2)c1` (relative stereo) [Example 218, trans-N-(3,4-dichlorophenyl)-1-[(1-methyl-1H-imidazol-4-yl)sulfonyl]-4-phenylpyrrolidin-3-amine] reads ≤ 1000 nM; that for `O=C(N[C@@H]1CN(S(=O)(=O)CC2CC2)C[C@H]1c1ccccc1)c1cc(Cl)cc(Cl)c1` (relative stereo) [Example 129, 3,5-dichloro-N-{trans-1-[(cyclopropylmethyl)sulfonyl]-4-phenylpyrrolidin-3-yl}benzamide], > 10000 nM; that for `Cn1cnc(S(=O)(=O)N2C[C@@H](CNc3cc(Cl)cc(Cl)c3)[C@H](c3ccc(F)cc3)C2)c1` (relative stereo) [Example 292, 3,5-dichloro-N-({trans-4-(4-fluorophenyl)-1-[(1-methyl-1H-imidazol-4-yl)sulfonyl]pyrrolidin-3-yl}methyl)aniline], ≤ 1000 nM.
For `Cc1cc(N[C@H]2CN(S(=O)(=O)c3cn(C)cn3)C[C@@H]2c2ccc(F)cc2)ccc1F` [Example 747, (3R,4S)-N-(4-fluoro-3-methylphenyl)-4-(4-fluorophenyl)-1-[(1-methyl-1H-imidazol-4-yl)sulfonyl]pyrrolidin-3-amine], under setting [1], the Ki was ≤ 10 nM.
Same read-out and setting: the result for `Cn1cnc(S(=O)(=O)N2C[C@@H](C(=O)Nc3ccccc3)[C@H](c3ccc(F)cc3)C2)c1` (relative stereo) [Example 242, trans-4-(4-fluorophenyl)-1-[(1-methyl-1H-imidazol-4-yl)sulfonyl]-N-phenylpyrrolidine-3-carboxamide] reads ≤ 10000 nM; that for `Cn1cnc(S(=O)(=O)N2C[C@@H](C(=O)Nc3cccc(C(F)(F)F)c3)[C@H](c3ccc(F)cc3)C2)c1` (relative stereo) [Example 317, Trans-4-(4-fluorophenyl)-1-[(1-methyl-1H-imidazol-4-yl)sulfonyl]-N-[3-(trifluoromethyl)phenyl]pyrrolidine-3-carboxamide], ≤ 1000 nM.

The values above are taken from patent publication EP2970215B1, “PYRROLIDINE DERIVATIVES, PHARMACEUTICAL COMPOSITIONS CONTAINING THEM, AND THEIR USE IN THERAPY” (AbbVie Deutschland GmbH & Co. KG, priority 2013, dated 2014).
